Literature values as cited in patent US20120101165A1, “Urea Compositions With Cooling Effect” (priority 2007, published 2012).
Read-outs that look alike come from different tables or passages of the source.

Assays:
[1] = 20% urea solution
[2] = endothermic
[3] = not given; remark: listed apart in the source

**Q.** Which results are given for `NC(N)=O` [urea, diaminomethanal]?
**A.** critical relative humidity (at 20° C.): about 81%; critical relative humidity (at 30° C.): about 73%; pH after storage ([1]; after 11 months at room temperature): 8.8; initial pH ([1]; initial): about 7.4; heat of solution in water [2]: about −57.8 cal/g; solubility in water ([3]; at 20° C.): 108 g/100 mL; solubility in water ([3]; at 100° C.): 733 g/100 mL
